This note sets out measurements from ChEMBL document CHEMBL1128720, “N-[(1-butyl-4-piperidinyl)methyl]-3,4dihydro-2H-[1,3]oxazino[3,2- a]indole10-carboxamide hydrochloride: the first potent and selective 5-HT4 receptor antagonist amide with oral activity” (J Med Chem, 1995).

SMILES strings stand for the structures.

The target in test [1] is 5-hydroxytryptamine receptor 4 (Cavia porcellus, UniProt O70528). Description: Ability to antagonize 5-HT-evoked contractions mediated through 5-hydroxytryptamine 4 receptor activation in the guinea pig distal colon LMMP. The format is tissue-based.
The target in test [2] is T1, 5-hydroxytryptamine receptor 1A (Homo sapiens, UniProt P08908).
T1 sequence (P08908 whole entry): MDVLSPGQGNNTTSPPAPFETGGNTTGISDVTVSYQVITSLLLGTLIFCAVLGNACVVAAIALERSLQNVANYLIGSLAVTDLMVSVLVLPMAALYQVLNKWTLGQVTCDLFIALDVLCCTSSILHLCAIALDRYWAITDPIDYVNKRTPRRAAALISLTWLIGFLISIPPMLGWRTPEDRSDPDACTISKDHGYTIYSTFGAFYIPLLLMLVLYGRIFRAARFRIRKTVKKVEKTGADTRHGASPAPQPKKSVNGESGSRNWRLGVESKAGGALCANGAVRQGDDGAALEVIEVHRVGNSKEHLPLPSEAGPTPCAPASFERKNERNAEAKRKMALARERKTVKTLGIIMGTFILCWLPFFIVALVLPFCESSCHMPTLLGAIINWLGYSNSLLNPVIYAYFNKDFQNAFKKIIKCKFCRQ
Description: Binding affinity was determined against 5-hydroxytryptamine 1A receptor. On the set-up: species or system Cavia porcellus.

Test [3] in a line: (§1) Binding affinity was determined against 5-hydroxytryptamine 2A receptor. On the set-up: species or system Cavia porcellus.
Test [4] deals with 5-hydroxytryptamine receptor 2A (Homo sapiens, UniProt P28223). The test is described as §1. More on the design: species or system Cavia porcellus.
Another test addresses D(3) dopamine receptor (Homo sapiens, UniProt P35462). Description: Binding affinity was determined against Dopamine receptor D3 determined using cloned human receptors expressed in CHO cells radiolabeled with [125I]- iodosulpride. Format: cell-based.
The next test concerns the target Histamine H1 receptor (Cavia porcellus, UniProt P31389). Description: Binding affinity was determined against H1 receptor.
Test [5] in a line: Binding affinity was determined against 5-hydroxytryptamine 1D receptor.
Another test addresses D(2) dopamine receptor (Homo sapiens, UniProt P14416). Description: Binding affinity was determined by standard competitive displacement of [125I]iodosulpride using Dopamine receptor D2 cloned human receptors expressed in CHO cells.

Sequence of 5-hydroxytryptamine receptor 4 (O70528 whole entry): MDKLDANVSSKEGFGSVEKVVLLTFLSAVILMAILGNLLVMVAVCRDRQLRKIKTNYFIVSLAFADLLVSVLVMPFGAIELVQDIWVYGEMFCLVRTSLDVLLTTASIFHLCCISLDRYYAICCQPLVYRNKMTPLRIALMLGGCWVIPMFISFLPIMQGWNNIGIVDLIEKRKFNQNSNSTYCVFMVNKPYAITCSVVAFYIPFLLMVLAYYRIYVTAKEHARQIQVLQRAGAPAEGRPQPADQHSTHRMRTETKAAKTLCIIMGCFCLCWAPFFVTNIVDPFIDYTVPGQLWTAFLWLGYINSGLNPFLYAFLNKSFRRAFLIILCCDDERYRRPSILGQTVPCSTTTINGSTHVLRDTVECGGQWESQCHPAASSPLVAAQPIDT
Sequence of Histamine H1 receptor (P31389 whole entry): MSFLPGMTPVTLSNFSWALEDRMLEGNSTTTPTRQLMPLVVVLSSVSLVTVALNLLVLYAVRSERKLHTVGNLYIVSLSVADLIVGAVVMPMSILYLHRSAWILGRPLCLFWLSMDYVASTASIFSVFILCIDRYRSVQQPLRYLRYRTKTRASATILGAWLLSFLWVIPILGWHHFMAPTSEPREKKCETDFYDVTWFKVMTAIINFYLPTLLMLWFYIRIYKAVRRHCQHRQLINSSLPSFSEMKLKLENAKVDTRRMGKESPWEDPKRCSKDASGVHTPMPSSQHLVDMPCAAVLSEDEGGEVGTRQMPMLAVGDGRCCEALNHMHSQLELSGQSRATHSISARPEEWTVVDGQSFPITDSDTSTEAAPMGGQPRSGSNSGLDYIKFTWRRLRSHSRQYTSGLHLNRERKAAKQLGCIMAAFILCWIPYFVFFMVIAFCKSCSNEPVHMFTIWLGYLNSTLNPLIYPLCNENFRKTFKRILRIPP
Sequence of 5-hydroxytryptamine receptor 2A (P28223 whole entry): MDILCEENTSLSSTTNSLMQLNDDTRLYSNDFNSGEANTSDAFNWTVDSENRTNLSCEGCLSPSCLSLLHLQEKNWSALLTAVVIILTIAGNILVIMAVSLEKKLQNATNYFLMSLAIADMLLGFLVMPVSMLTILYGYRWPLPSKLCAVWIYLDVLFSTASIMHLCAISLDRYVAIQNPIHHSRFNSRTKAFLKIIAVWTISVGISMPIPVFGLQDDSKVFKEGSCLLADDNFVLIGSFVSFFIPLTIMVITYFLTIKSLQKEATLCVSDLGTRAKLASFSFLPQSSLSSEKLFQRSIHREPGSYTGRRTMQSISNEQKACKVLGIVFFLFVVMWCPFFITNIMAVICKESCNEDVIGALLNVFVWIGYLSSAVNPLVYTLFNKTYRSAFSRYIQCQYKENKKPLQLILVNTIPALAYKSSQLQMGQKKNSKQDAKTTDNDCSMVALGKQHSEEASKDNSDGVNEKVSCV
Sequence of D(2) dopamine receptor (P14416 whole entry): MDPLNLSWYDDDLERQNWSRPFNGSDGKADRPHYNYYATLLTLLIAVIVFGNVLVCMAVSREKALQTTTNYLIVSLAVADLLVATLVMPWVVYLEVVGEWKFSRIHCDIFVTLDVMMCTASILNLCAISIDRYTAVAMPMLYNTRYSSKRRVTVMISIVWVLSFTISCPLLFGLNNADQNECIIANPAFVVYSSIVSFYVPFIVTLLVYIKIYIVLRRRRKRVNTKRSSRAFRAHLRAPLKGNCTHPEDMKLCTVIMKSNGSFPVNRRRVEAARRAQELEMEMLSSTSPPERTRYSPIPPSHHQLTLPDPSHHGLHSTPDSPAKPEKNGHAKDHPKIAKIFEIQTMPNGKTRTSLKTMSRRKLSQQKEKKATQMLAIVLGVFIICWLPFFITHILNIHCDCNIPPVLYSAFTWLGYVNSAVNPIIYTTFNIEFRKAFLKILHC
Sequence of D(3) dopamine receptor (P35462 whole entry): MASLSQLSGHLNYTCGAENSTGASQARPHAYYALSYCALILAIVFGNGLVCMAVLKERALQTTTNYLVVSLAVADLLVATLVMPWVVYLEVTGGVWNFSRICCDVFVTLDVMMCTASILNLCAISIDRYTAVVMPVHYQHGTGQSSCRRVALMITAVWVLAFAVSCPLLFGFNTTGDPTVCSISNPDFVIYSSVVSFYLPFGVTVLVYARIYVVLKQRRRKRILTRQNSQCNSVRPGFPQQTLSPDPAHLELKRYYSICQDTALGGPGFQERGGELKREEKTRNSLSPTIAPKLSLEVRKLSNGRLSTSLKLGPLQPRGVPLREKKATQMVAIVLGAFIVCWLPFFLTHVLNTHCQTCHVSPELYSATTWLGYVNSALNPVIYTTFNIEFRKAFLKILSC

Consider `CCCCN1CCC(CNC(=O)c2c3n(c4ccccc24)CCCCO3)CC1`, for which half-maximal inhibition in test [1] (IC50) was put at 7.94 nM.
Compound `CCCCN1CCC(COC(=O)c2c(OC)[nH]c3ccccc23)CC1` gave a half-inhibitory concentration (IC50) in test [1] of 0.1 nM.
In test [1], `CCCCN1CCC(CNC(=O)c2c3n(c4ccccc24)CCO3)CC1` showed an IC50 of 15.8 nM.
With `CCCCN1CCC(CNC(=O)c2c3n(c4ccccc24)CCCO3)CC1` [PIBOSEROD], the Ki in test [2] was more than 10000 nM; in test [4], more than 1000 nM; at D(3) dopamine receptor it was more than 1000 nM; on Histamine H1 receptor it was more than 1000 nM; in test [5], more than 10000 nM; at D(2) dopamine receptor, more than 1000 nM. The compound also registered a Log Ki in test [3] of more than -6.
As to `CCCCN1CCC(CNC(=O)c2c(OC)[nH]c3ccccc23)CC1`, in test [1], the IC50 is 79.4 nM.
The same measure, in the same setting: the same measure for `CCCCN1CCC(CNC(=O)c2c[nH]c3ccccc23)CC1`: 200 nM.

For orientation: IC50 means the concentration that inhibits the measured activity by half. Higher therefore signals weaker potency. A word on the Ki: it is the equilibrium dissociation constant of an inhibitor or competing ligand from its target. The low end stands for a stronger hold on the target, the high end for a looser hold on the target.
